Measured values taken from patent publication US20240384268A1, “Oligonucleotides” (Hudson Institute of Medical Research, priority 2021, published 2024).
In the oligonucleotide strings, read from the 5' end, every base follows the letter of its sugar. An asterisk marks phosphorothioate; unmarked linkages are phosphodiester. Other units and linkages are bracketed, terminal groups are in braces. A string of capitals states the bases alone. d = 2'-deoxy (DNA); m = 2'-O-methyl

Target: T1, TLR8 (Homo sapiens, UniProt Q9NR97)
T1 sequence (Q9NR97 27-1041): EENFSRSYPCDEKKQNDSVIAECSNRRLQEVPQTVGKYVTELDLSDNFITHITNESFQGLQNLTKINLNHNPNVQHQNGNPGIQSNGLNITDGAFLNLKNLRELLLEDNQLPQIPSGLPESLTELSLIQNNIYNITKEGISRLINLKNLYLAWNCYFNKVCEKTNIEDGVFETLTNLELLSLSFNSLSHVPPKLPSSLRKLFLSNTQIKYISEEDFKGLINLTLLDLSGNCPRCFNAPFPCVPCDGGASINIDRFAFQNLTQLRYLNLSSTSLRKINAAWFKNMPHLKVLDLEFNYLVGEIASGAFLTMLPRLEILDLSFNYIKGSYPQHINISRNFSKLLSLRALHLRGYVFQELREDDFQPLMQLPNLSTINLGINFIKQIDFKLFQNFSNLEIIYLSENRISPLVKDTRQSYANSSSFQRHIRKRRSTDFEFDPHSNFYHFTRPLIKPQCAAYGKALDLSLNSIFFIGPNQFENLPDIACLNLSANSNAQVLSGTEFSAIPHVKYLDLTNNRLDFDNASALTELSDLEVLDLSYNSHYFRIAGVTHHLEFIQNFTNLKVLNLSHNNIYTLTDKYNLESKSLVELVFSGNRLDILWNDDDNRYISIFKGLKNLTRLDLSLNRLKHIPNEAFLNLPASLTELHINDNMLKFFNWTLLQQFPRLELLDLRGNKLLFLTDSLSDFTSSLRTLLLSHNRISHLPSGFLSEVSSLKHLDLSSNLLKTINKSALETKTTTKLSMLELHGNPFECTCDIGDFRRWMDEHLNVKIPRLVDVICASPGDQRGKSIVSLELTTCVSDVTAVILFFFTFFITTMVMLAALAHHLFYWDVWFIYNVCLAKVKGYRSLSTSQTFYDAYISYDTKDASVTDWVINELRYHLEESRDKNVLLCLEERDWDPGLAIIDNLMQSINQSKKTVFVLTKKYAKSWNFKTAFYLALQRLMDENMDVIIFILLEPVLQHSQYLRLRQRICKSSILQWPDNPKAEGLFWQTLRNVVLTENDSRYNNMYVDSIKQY
Assay: HEK-TLR8 NF-κB-luciferase reporter, R848 or Motolimod stimulation (potentiation or inhibition)
Format: cell-based
Set-up: expressed in transfected cells; host or cells: 293XLhTLR8 (HEK293)
Conditions: for TLR8 100 nM (averaged NF-κB-Luciferase level relative to R848 condition, fold increase): ASO 100 nM; for TLR8 100 nM (averaged NF-κB-Luciferase level relative to R848 condition, fold increase) / TLR8 500 nM (averaged NF-κB-Luciferase level relative to R848 condition, fold increase): relative to R848 only; for TLR8 500 nM (averaged NF-κB-Luciferase level relative to R848 condition, fold increase): ASO 500 nM; for TLR8 HEK 5 uM: 3mer 2'OMe ASO at 5 uM, value relative to Ligand only = 1.000, NT = 0.000; for effect of 3-mer 2′OMe PS oligos on TLR8 sensing in HEK-TLR8 (in words): 5 μM naked 3-mer, Motolimod
Method: (§1) In such examples, potentiation of TLR8 activity can be identified by observation of an overall increased TLR8 response of the cell population, or a higher proportion of cells having TLR8-positive activity as compared to a negative control condition in which cells are treated with TLR8 agonist in the absence of the oligonucleotide (or in the presence of an appropriate control non-potentiating agent). In one example, 293XLhTLR8 (referred to as HEK-TLR8) cells are transfected with pNF-κB-Luc4 reporter, incubated with an oligonucleotide, and then stimulated with R848. TLR8 activity can be determined by a luciferase assay, which measures activated NF-κB by luminescence. TLR8 activity can also be analysed by measuring cytokine levels, for example by ELISA.
as §1, with “inhibition” for “potentiation”, “decreased” for “increased”, “lower” for “higher”, “positive” for “negative”, “inhibitory” for “non-potentiating”
For cGAS stimulations, cells were treated for indicated duration with ASOs, prior to transfection with ISD70 (human cells) or ISD45 (mouse cells) (the ASOs were not washed off prior to ISD transfection unless otherwise indicated). The cGAS ligands ISD45 (Stetson and Medzhitov, 2006) and ISD70 (also known as VACV-70 (Unterholzner et al., 2010)) (Table 1) were resuspended as follows: 5 1d of sense and 5 μl of antisense strands at 10 μg/μl were added to 90 μl PBS under sterile conditions, heated at 75° C. for 30 min, prior to letting cool down at room temperature and aliquoting (stock at 1 μg/1 l). The ISDs were transfected at a concentration of […] at a ratio of 1 μg:1 μl with Lipofectamine 2000 in Opti-MEM (Thermo Fisher Scientific). HEK-TLR3, HEK-TLR7 and […] were treated with indicated concentration of ASOs for 20-50 min, prior to stimulation with poly(I:C) (Invivogen), R848 (Invivogen), Motolimod (MedChemExpress) and the Class B CpG oligonucleotides ODN 2006 (synthesised by IDT and resuspended in RNase-free TE buffer [Table 1]), respectively. The TLR2/1 agonist PAM3CSK4 (Invivogen), the TLR4 agonist lipopolysaccharide (Invivogen), the Class B CpG oligonucleotides ODN 1826 (synthesised by IDT and resuspended in RNase-free TE buffer), the mouse Sting agonist DMXAA (Cayman) and the human STING agonist (compound #3 from (Raanjulu et al., 2018), referred to as GSK herein—kind gift from Cancer Therapeutics CRC, Australia) were used at indicated concentrations. Aspirin (Sigma—A2093) was resuspended in pure medium to 10 mM, filter sterilised and added to the cells at 2 mM final. All ASOs were synthesised by Integrated DNA Technologies (IDT), and resuspended in RNase-free TE buffer, pH 8.0 (Thermo Fisher Scientific). Cell viability was assessed by adding 1× fresh resazurin solution to the wells (10λ solution made up with 7 mg resazurin [Sigma—R7017] dissolved in 3.5 ml PBS, sterile filtered at […]) for 4 h, prior to reading at with a Fluostar OPTIMA (BMG LABTECH) plate-reader (fluorescence: Excitation 535 nm, Emission 590); wells with medium only and 1× resazurin were used as blanks.

| Substance | TLR8 HEK 5 uM | other results |
| --- | --- | --- |
| TCCAACACTTCGTGGG (antisense; LNA-modified, pattern not given here) [HPRT LNA-669 V1] | – | TLR8 100 nM (averaged NF-κB-Luciferase level relative to R848 condition, fold increase): 0.413; TLR8 500 nM (averaged NF-κB-Luciferase level relative to R848 condition, fold increase): 0.491 |
| TCGTAGTTGCTTCCTA (antisense; LNA-modified, pattern not given here) [MB21D1-1181 LNA KL] | – | TLR8 100 nM (averaged NF-κB-Luciferase level relative to R848 condition, fold increase): 0.557; TLR8 500 nM (averaged NF-κB-Luciferase level relative to R848 condition, fold increase): 1.583 |
| TGATGGCCTCCCATCT (antisense; LNA-modified, pattern not given here) [HPRT LNA-332 V1] | – | TLR8 100 nM (averaged NF-κB-Luciferase level relative to R848 condition, fold increase): 0.374; TLR8 500 nM (averaged NF-κB-Luciferase level relative to R848 condition, fold increase): 0.263 |
| TGCACACTTCGTACCC (antisense; LNA-modified, pattern not given here) [CAMSAP1-4916 LNA V1] | – | TLR8 100 nM (averaged NF-κB-Luciferase level relative to R848 condition, fold increase): 0.411; TLR8 500 nM (averaged NF-κB-Luciferase level relative to R848 condition, fold increase): 0.370 |
| TGGCCTCCCATCTCCT (antisense; LNA-modified, pattern not given here) [HPRT LNA-329 V1] | – | TLR8 100 nM (averaged NF-κB-Luciferase level relative to R848 condition, fold increase): 0.495; TLR8 500 nM (averaged NF-κB-Luciferase level relative to R848 condition, fold increase): 1.127 |
| TGTGATGGCCTCCCAT (antisense; LNA-modified, pattern not given here) [HPRT LNA-334 V1] | – | TLR8 100 nM (averaged NF-κB-Luciferase level relative to R848 condition, fold increase): 0.582; TLR8 500 nM (averaged NF-κB-Luciferase level relative to R848 condition, fold increase): 1.596 |
| TTCGTGGGGTCCTTTT (antisense; LNA-modified, pattern not given here) [HPRT LNA-661 V1] | – | TLR8 100 nM (averaged NF-κB-Luciferase level relative to R848 condition, fold increase): 0.621; TLR8 500 nM (averaged NF-κB-Luciferase level relative to R848 condition, fold increase): 3.144 |
| TTTTGGCTGGGATCAA (antisense; LNA-modified, pattern not given here) [CAMSAP1-4697 LNA KL] | – | TLR8 100 nM (averaged NF-κB-Luciferase level relative to R848 condition, fold increase): 0.542; TLR8 500 nM (averaged NF-κB-Luciferase level relative to R848 condition, fold increase): 1.412 |
| UAA (mU*mA*mA) | 0.907 | – |
| UAC (mU*mA*mC) | 0.813 | – |
| UAG (mU*mA*mG) | 1.443 | – |
| UAU (mU*mA*mU) | 0.887 | – |
| UCC (mU*mC*mC) | 1.292 | – |
| UCU (mU*mC*mU) | 1.414 | – |
| UGC (mU*mG*mC) | 1.032 | – |
| UGU (mU*mG*mU) | 1.120 | – |
| UUA (mU*mU*mA) | 1.060 | – |
| UUC (mU*mU*mC) | 0.968 | – |
| UUG (listed as RNA, chemistry not fully specified) | 1.071 | – |
| UUU (mU*mU*mU) | 0.870 | – |

| Substance | TLR8 HEK 5 uM | other results |
| --- | --- | --- |
| dA*dA*dA (DNA AAA; listed as DNA, chemistry not fully specified) | 0.859 | – |
| dA*dA*dC (DNA AAC; listed as DNA, chemistry not fully specified) | 0.696 | – |
| dA*dA*dG (DNA AAG; listed as DNA, chemistry not fully specified) | 0.858 | – |
| dA*dC*dA (DNA ACA; listed as RNA, chemistry not fully specified) | 0.841 | – |
| dA*dG*dA (DNA AGA; listed as DNA, chemistry not fully specified) | 1.520 | – |
| dA*dG*dC (DNA AGC; listed as DNA, chemistry not fully specified) | 1.411 | – |
| dC*dA*dA (CAA; listed as DNA, chemistry not fully specified) | 0.811 | – |
| dC*dA*dC (CAC; listed as RNA, chemistry not fully specified) | 0.809 | – |
| dC*dC*dA (CCA; listed as DNA, chemistry not fully specified) | 0.946 | – |
| dC*dC*dC (CCC; listed as DNA, chemistry not fully specified) | 0.756 | – |
| dC*dC*dG (CCG; listed as DNA, chemistry not fully specified) | 0.899 | – |
| dC*dG*dA (CGA; listed as DNA, chemistry not fully specified) | 1.512 | – |
| dG*dC*dC [GCC] | 0.701 | – |
| dG*dC*dG [GCG] | 1.191 | – |
| mAmUmC (mA*mU*mC) [AUC, 3-mer 2′OMe PS oligo] | 0.674 | – |
| mCmUmU (antisense mC*mU*mU) [660-3] | 0.712 | – |
| mGmAmU (mG*mA*mU) [GAU, 3-mer 2′OMe PS oligo] | 0.528 | effect of 3-mer 2′OMe PS oligos on TLR8 sensing in HEK-TLR8 (in words): robustly the most potent |
| mGmUmA (GUA; all 2'-O-methyl, backbone not given here; further chemistry not fully specified) [shortMut1-3b] | 0.792 | effect of 3-mer 2′OMe PS oligos on TLR8 sensing in HEK-TLR8 (in words): robustly inhibitory |
| mGmUmC (mG*mU*mC) [GUC, 3-mer 2′OMe PS oligo] | 0.763 | effect of 3-mer 2′OMe PS oligos on TLR8 sensing in HEK-TLR8 (in words): robustly inhibitory |
